Values of other authors as cited in patent US8802735B2, “(Z)-2-cyano-3-hydroxy-but-2-enoic acid-(4'-trifluormethylphenyl)-amide tablet formulations with improved stability” (Sanofi, priority 2009, dated 2014).

Target: dihydroorotate dehydrogenase (Homo sapiens, UniProt Q02127)
Settings: Bruneau J-M, et al., Biochem. J. 1998

dihydroorotate dehydrogenase, sequence (Q02127 whole entry): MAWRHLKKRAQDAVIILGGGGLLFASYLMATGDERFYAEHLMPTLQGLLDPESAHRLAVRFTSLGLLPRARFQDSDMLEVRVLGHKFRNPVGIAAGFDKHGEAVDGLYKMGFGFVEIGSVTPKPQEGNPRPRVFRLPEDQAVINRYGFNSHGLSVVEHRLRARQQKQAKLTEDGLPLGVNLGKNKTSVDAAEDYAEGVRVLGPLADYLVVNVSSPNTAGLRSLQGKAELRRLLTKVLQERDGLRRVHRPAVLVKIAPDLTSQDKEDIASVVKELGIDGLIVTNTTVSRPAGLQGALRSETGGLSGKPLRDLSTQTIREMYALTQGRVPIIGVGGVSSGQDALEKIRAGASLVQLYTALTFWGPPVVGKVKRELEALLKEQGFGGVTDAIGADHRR

C/C(O)=C(\C#N)C(=O)Nc1ccc(C(F)(F)F)cc1 [Teriflunomide, (Z)-2-cyano-3-hydroxy-but-2-enoic acid-(4′-trifluoromethylphenyl)-amide]
inhibition of the enzyme dihydroorotate dehydrogenase: inhibits
